Like-named read-outs stand apart in the source and are kept apart here.
Test system: caspase-3 cleavage
Details: 2.5 μg/ml; for suppression of hypoxia-induced caspase-3 cleavage after pulse dosing: 16 hours washout, hypoxia 0.5% O2 24 hours; for caspase-3 cleavage, both dosing protocols: continuous or pulse, hypoxia
Method: Cells were exposed to 0.5% O2 for 18 hours unless otherwise specified.

Structure (SMILES)	suppression of hypoxia-induced caspase-3 cleavage after pulse dosing (12 hours pulse)	suppression of hypoxia-induced caspase-3 cleavage after pulse dosing (12 hours pulse, listed as doxycycline)	caspase-3 cleavage, both dosing protocols	suppressive effect on caspase-3 cleavage vs washout period length (12 hours pulse, washout 0, 12, 24 hours, hypoxia 0.5% O2 18 hours)
CC1c2cccc(O)c2C(=O)C2=C(O)C3(O)C(=O)C(C(N)=O)=C(O)C(N(C)C)C3C(O)C21 (stereo not drawn) [Dox, 4-[Dimethylamino]-1,4,4a,5,5a,6,11,12a-octahydro-3,5,10,12,12apentahydroxy-6-methyl-1,11-dioxo-2-naphthacenecarboxamide]	ameliorated dox-mediated suppression	did ameliorate its suppressive effects on caspase cleavage	both drugs interfered with caspase-3 cleavage	–
C[C@H]1c2ccc(C(C)(C)C)c(O)c2C(O)=C2C(=O)[C@]3(O)C(O)=C(C(N)=O)C(=O)[C@@H](N(C)C)[C@@H]3[C@@H](O)[C@@H]21 [9-TB, 9-t-butyl doxycycline]	less impressive	–	both drugs interfered with caspase-3 cleavage	augmented by shorter washout periods with a sharp decline occurring between the 12 and 24-hour chase periods
